Source: patent US4454139A, “α2 -Adrenoceptor antagonistic benzoquinolizines” (John Wyeth & Brother, Limited, priority 1980, dated 1984)

Key:
[1] = target: T1, α2 (presynaptic α)-adrenoceptor (Rattus norvegicus, UniProt P22909); experiment: α2-adrenoceptor antagonistic activity on the rat field stimulated vas deferens preparation (clonidine agonist); assay type: cell-based; conditions: clonidine as agonist, Arunlakshana & Schild; for pA2 (α2): 90 min; for Kb: read-out: pA2 (α2) (converted)
T1 construct: from tissue; host or cells: rat vas deferens (desheathed, field stimulated)
T1 sequence (P22909 1-465): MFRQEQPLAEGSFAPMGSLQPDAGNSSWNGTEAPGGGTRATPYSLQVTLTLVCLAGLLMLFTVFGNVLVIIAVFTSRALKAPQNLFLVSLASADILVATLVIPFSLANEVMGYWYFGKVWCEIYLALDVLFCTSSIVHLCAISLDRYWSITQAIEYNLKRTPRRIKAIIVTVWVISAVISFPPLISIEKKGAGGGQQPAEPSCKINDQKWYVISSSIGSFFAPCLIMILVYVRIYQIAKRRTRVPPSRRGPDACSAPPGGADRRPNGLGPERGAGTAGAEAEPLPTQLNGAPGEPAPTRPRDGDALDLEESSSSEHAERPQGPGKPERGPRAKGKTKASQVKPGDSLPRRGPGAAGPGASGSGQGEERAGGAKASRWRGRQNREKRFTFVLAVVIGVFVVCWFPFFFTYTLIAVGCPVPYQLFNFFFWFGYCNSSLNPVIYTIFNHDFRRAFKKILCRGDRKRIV
Procedure: The compounds of the invention were tested for their α2 -adrenoceptor antagonistic activity on the rat field stimulated vas deferens preparation using a modification of the method of Drew, Eur.J.Pharmac., 1977, 42, 123-130. The procedure is described below. […] from sexually mature rats were suspended in a 6 ml organ bath in Krebs solution at 37° and bubbled with 5% CO2 in oxygen. Platinum ring electrodes were positioned above and below the tissue for field stimulation, the stimulus parameters being 0.1 Hz 1 ms pulse width at supramaximal voltage. Twitch responses were recorded isotonically with a 0.5 g loading. […] After washing out clonidine, the twitch response quickly recovered and an antagonist was then introduced into the Krebs reservoir. Clonidine concentration-response curves were repeated 90 min after introduction of the antagonist. The concentration of clonidine producing 50% inhibition of twitch before and after introduction of antagonist were obtained and the dose-ratio for clonidine was calculated. Various concentrations of the antagonists were used. […] Chemother., 1959, 14, 48-58 and the values of pA2 and slope were calculated.

[2] = system: postsynaptic (α1) α-adrenoceptor; experiment: postsynaptic (α1) antagonistic activity on the isolated anococcygeus muscle of the rat (phenylephrine or methoxamine agonist); assay type: cell-based
From the text: (§1) The postsynaptic(α1)antagonistic activity can be evaluated by a number of different methods. One method involves assessing the activity on the isolated anococcygeus muscle of the rat. The method is based on that of Gillespie, Br.J.Pharmac., 1972, 45, 404-416. In the procedure male rats (250-360 g) are killed by a blow on the head and bled. The two anococcygeus muscles are removed from their position in the midline of the pelvic cavity, where they arise from the upper coccygeal vertebrae. The muscles are suspended in 5 ml organ baths in Krebs solution containing 10^-4 M ascorbic acid, to prevent drug oxidation. The tissues are gassed with a 95% oxygen, 5% CO2 mixture and maintained at 37°. Longitudinal muscle contractions are recorded using isotonic transducers. Cumulative dose response curves are then obtained to phenylephrine or in some cases methoxamine, both agents being postsynaptic alpha adrenoceptor agonists. The concentration range of phenylephrine or methoxamine used is 0.02 to 0.8 μg.ml^-1. The agonist is then washed from the bath and the test drug added to the bathing medium at a concentration of 10^-6 M. After 30 min. equilibration with the test drug a further agonist dose response curve is obtained. The washing, equilibration and agonists dosing procedures are then repeated using 10^-5 M and 10^-4 M solutions of the test drug. Estimates of the pA2 value for the test drug as an antagonist of phenylephrine or methoxamine were made from the agonist dose-ratios using the method of Arunlakshana & Schild, Br.J.Pharmac.Chemother., 1959, 14, 48-58.

[3] = target: T2, postsynaptic (α1) α-adrenoceptor (Rattus norvegicus, UniProt P43140); experiment: as above; assay type: cell-based; conditions: rat anococcygeus muscle; phenylephrine or methoxamine as agonist; α1; read-out: pA2 (postsynaptic) (converted)
T2 construct: the isolated anococcygeus muscle of the rat; from tissue; host or cells: rat anococcygeus muscle (male rats, 250-360 g)
T2 sequence (P43140 1-466): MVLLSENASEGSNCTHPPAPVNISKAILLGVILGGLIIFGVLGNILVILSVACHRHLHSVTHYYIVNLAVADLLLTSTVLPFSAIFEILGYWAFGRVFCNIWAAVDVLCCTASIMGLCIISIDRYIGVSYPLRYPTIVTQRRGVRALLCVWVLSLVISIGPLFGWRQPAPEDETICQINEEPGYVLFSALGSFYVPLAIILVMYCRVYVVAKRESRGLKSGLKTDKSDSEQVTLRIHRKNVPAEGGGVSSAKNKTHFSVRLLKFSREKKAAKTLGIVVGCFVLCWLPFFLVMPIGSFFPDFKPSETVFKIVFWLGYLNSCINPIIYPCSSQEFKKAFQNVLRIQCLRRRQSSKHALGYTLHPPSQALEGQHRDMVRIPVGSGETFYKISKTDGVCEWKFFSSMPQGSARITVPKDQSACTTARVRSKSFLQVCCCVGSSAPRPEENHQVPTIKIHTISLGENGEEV
From the text: as §1

[4] = system: rats rendered hypertensive by implantation of desoxycorticosterone acetate; experiment: hypotensive activity in rats rendered hypertensive by implantation of desoxycorticosterone acetate; assay type: in vivo, rat
human blood platelets = experiment: inhibition of adrenaline-induced aggregation in vitro of human blood platelets; assay type: cell-based
[5] = system: hyperglycaemia induced by the α2 agonist clonidine; experiment: inhibition of clonidine-induced hyperglycaemia in rats; assay type: in vivo, rat; conditions: 10 mg/kg, clonidine 15 μg/kg subcutaneous

CCS(=O)(=O)NC1CCN2CCc3ccccc3C2C1 (centres unmarked) [2βethanesulphonamido-1,3,4,6,7,11b-hexahydro-2H--benzo[a]quinolizine, reference compound]
pA2 (α2) [1]: 5.3

CN([C@@H]1CCN2CCc3ccccc3[C@@H]2C1)S(=O)(=O)c1ccc(Cl)cc1 (relative stereo) [H, N-Methyl-N-(1,3,4,6,7,11bα-hexahydro-2H-benzo[a]quinolizin-2β-yl)-4-chlorobenzenesulphonamide]
Kb [1]: 25.1 nM | α2 selectivity [2]: 32 | Kb [3]: 813 nM

CN([C@@H]1CCN2CCc3ccccc3[C@@H]2C1)S(C)(=O)=O (relative stereo) [A, N-Methyl-N-(1,3,4,6,7,11bα-hexahydro-2H-benzo[a]quinolizin-2β-yl)methanesulphonamide]
hypotensive activity [4]: do not possess substantial hypotensive activity | Kb [1]: 20 nM | α2 selectivity [2]: 56 | Kb [3]: 1120 nM | inhibition of the aggregation in vitro of human blood platelets induced by adrenaline (human blood platelets): inhibit the aggregation | inhibition of the hyperglycaemia induced by clonidine [5]: inhibited the hyperglycaemia

CCCN([C@@H]1CCN2CCc3ccccc3[C@@H]2C1)S(C)(=O)=O (relative stereo) [N--(n-Propyl)-N--(1,3,4,6,7,11bα-hexahydro-2H--benzo[a]quinolizin-2β-yl)methanesulphonamide, reference compound]
Kb [1]: 100 nM

CCCS(=O)(=O)N(C)[C@@H]1CCN2CCc3ccccc3[C@@H]2C1 (relative stereo) [C, N-Methyl-N-(1,3,4,6,7,11bα-hexahydro-2H-benzo[a]quinolizin-2β-yl)propan-1-sulphonamide]
Kb [1]: 5.01 nM | α2 selectivity [2]: 144 | Kb [3]: 724 nM | inhibition of the aggregation in vitro of human blood platelets induced by adrenaline (human blood platelets): inhibit the aggregation

Cc1ccc(S(=O)(=O)N(C)[C@@H]2CCN3CCc4ccccc4[C@@H]3C2)cc1 (relative stereo) [F, N-Methyl-N-(1,3,4,6,7,11bα-hexahydro-2H-benzo[a]quinolizin-2β-yl)toluene-4-sulphonamide]
Kb [1]: 7.94 nM | α2 selectivity [2]: 59 | Kb [3]: 468 nM

S=C(Nc1ccccc1)NC1CCN2CCc3ccccc3C2C1 (centres unmarked) [1-(1,3,4,6,7,11b-hexahydro-2H--benzo[a]quinolizin-2yl)-3-phenylthiourea, reference compound]
Kb [1]: 2510 nM

O=S(=O)(NC1CCN2CCc3ccccc3C2C1)c1ccccc1 (stereo not drawn) [2β-phenylsulphonamido-1,3,4,6,7,11b-hexahydro-2H--benzo[a]quinolizine, reference compound]
pA2 (α2) [1]: 6.4

CCCS(=O)(=O)N[C@@H]1CCN2CCc3ccccc3[C@@H]2C1 (relative stereo) [2β-(n-propanesulphonamido-1,3,4,6,7,11bα-hexahydro-2H--benzo[a]quinolizine, reference compound]
Kb [1]: 316 nM

COc1cc2c(cc1OC)[C@@H]1C[C@H](N(C)S(C)(=O)=O)CCN1CC2 (relative stereo) [N--methyl-N--(9,10-dimethoxy-1,3,4,6,7,11bα-hexahydro-2H--benzo[a]quinolizin-2β-yl)-methanesulphonamide, reference compound]
Kb [1]: 158 nM

CCN([C@@H]1CCN2CCc3ccccc3[C@@H]2C1)S(C)(=O)=O (relative stereo) [E, N--Ethyl-N--(1,3,4,6,7,11bα-hexahydro-2H--benzo[a]quinolizin-2-62-yl)methanesulphonamide]
Kb [1]: 15.8 nM | α2 selectivity [2]: 35.5 | Kb [3]: 562 nM

CN([C@@H]1CCN2CCc3ccccc3[C@@H]2C1)S(=O)(=O)c1ccccc1 (relative stereo) [D, N-methyl-N-(1,3,4,6,7,11bα-hexahydro-2H-benzo[a]quinolizin-2β-yl)benzenesulphonamide]
Kb [1]: 3.98 nM | α2 selectivity [2]: 102 | Kb [3]: 457 nM | inhibition of the hyperglycaemia induced by clonidine [5]: inhibited the hyperglycaemia

O=C(Nc1ccccc1)NC1CCN2CCc3ccccc3C2C1 (centres unmarked) [1-(1,3,4,6,7,11b-hexahydro-2H benzo[a]quinolizin-2yl)-3-phenyl urea, reference compound]
Kb [1]: 3980 nM

CS(=O)(=O)NC1CCN2CCc3ccccc3C2C1 (centres unmarked) [2-methanesulphonamido-1,3,4,6,7,11b-hexahydro-2H--benzo[a]quinolizine, reference compound]
Kb [1]: 126 nM

CCCCS(=O)(=O)N(C)[C@@H]1CCN2CCc3ccccc3[C@@H]2C1 (relative stereo) [K, N-Methyl-N-(1,3,4,6,7,11bα-hexahydro-2H-benzo[a]quinolizin-2β-yl)-n-butanesulphonamide]
Kb [1]: 12.6 nM | α2 selectivity [2]: 19 | Kb [3]: 251 nM

COc1ccc(S(=O)(=O)N(C)[C@@H]2CCN3CCc4ccccc4[C@@H]3C2)cc1 (relative stereo) [G, N-Methyl-N-(1,3,4,6,7,11bα-hexahydro-2H-benzo[a]quinolizin-2β-yl)-4-methoxybenzenesulphonamide]
Kb [1]: 7.94 nM | α2 selectivity [2]: 40 | Kb [3]: 316 nM

CC(C)CS(=O)(=O)N(C)[C@@H]1CCN2CCc3ccccc3[C@@H]2C1 (relative stereo) [L, N-Methyl-N-(1,3,4,6,7,11bα-hexahydro-2H-benzo[a]quinolizin-2β-yl)-isobutanesulphonamide]
Kb [1]: 3.16 nM | α2 selectivity [2]: 93 | Kb [3]: 324 nM | inhibition of the hyperglycaemia induced by clonidine [5]: inhibited the hyperglycaemia

CCS(=O)(=O)N(C)[C@@H]1CCN2CCc3ccccc3[C@@H]2C1 (relative stereo) [B, N-Methyl-N-(1,3,4,6,7,11bα-hexahydro-2H-benzo[a]quinolizin-2β-yl)ethanesulphonamide]
Kb [1]: 20 nM | α2 selectivity [2]: 34 | Kb [3]: 676 nM

CN([C@@H]1CCN2CCc3ccccc3[C@@H]2C1)S(=O)(=O)c1ccc(Cl)c(Cl)c1 (relative stereo) [J, N-Methyl-N-(1,3,4,6,7,11bα-hexahydro-2H-benzo[a]quinolizin-2β-yl)-3,4-dichlorobenzenesulphonamide]
Kb [1]: 31.6 nM | α2 selectivity [2]: 93 | Kb [3]: 3310 nM

Cc1ccccc1S(=O)(=O)N(C)[C@@H]1CCN2CCc3ccccc3[C@@H]2C1 (relative stereo) [I, N-Methyl-N-(1,3,4,6,7,11bα-hexahydro-2H-benzo[a]quinolizin-2β-yl)-2-methylbenzenesulphonamide]
Kb [1]: 12.6 nM | α2 selectivity [2]: 40 | Kb [3]: 537 nM
